# Source: publication PMC10001067, “Xanthine Oxidase Inhibitory Peptides from Larimichthys polyactis: Characterization and In Vitro/In Silico Evidence” (Foods, 2023)
# No end group written: not given here.
# Key:
# [1] = biological target: T1, xanthine oxidase (XO) (Bos taurus, UniProt P80457); experiment: XOI activity IC50 in vitro (uric acid formation, absorbance 290 nm); format: biochemical, bovine milk; conditions: for XOI activity at 15 mg/mL: peptide at 15 mg/mL; for IC50: synthesized peptides, 0.2 M potassium phosphate buffer pH 7.4, XO 0.07 U/mL, xanthine 0.48 mM, 37 °C, absorbance 290 nm, mean ± SD, n = 3, SD
# T1 construct: xanthine oxidase (X1875-5UN, derived from bovine milk); purchased Solarbio Co., Ltd. (Beijing, China) X1875-5UN; host or cells: bovine milk
# T1 sequence (P80457 whole entry): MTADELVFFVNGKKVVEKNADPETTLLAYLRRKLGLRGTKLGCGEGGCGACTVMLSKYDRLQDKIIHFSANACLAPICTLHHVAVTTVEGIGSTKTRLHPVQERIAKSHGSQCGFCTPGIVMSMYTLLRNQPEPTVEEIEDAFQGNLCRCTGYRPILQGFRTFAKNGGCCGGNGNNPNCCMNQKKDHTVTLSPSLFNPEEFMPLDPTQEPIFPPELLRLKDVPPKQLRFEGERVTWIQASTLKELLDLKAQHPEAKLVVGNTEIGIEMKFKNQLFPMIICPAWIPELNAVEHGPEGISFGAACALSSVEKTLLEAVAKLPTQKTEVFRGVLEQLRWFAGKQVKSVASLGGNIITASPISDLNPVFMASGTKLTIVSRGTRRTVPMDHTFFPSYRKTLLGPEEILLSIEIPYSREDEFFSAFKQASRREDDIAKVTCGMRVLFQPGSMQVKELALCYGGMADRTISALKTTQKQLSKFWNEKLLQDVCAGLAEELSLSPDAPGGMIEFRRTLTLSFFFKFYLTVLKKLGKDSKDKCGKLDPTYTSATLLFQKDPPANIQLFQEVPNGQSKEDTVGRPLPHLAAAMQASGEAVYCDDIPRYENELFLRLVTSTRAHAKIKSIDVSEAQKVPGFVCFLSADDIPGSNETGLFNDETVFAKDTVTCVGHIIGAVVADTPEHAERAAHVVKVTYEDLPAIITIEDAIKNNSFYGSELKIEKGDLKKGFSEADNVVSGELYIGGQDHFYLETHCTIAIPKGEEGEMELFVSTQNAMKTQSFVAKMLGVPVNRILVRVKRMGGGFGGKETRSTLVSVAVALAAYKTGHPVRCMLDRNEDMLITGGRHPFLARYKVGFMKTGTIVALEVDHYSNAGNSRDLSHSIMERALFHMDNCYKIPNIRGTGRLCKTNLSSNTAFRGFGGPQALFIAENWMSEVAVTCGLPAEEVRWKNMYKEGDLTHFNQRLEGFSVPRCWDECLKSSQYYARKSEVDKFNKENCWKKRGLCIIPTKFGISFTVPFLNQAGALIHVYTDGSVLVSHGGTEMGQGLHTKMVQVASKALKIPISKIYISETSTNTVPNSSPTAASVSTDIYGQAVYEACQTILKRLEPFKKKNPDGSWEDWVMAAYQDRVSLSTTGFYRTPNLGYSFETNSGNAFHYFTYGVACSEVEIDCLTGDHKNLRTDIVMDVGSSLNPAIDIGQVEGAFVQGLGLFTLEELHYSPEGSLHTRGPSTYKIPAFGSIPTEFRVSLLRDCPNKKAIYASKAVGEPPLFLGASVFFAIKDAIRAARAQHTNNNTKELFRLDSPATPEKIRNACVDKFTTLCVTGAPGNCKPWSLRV
# Description: The XOI activity levels of SYCHs were determined and calculated with the methods reported by Liu and Wei with slight modifications. Xanthine was dissolved in 0.2 M potassium phosphate buffer (pH = 7.4) to a concentration of 0.48 mM. In addition, samples (SYCH, UF-1, UF-2, and UF-3) were also dissolved in 0.2 M potassium phosphate buffer (pH = 7.4). Next, 50 μL of sample solution and 50 μL of XO solution (0.07 U/mL) were mixed and incubated at 37 °C for 5 min, then 150 μL of xanthine solution was added to the mixture to continue the reaction. The absorbance of formed uric acid in the samples was monitored at 290 nm with a multifunctional microplate reader (Tecan Co., Ltd., Männedorf, Switzerland). The results were recorded for 10 min. The assay was performed in triplicate. The formula for the calculation of XOI activity is as follows: […]=(dA/dt)blank−(dA/dt)sample/(dA/dt)blank × 100% where (dA/dt)blank and (dA/dt)sample are the reaction rate without and with the test sample inhibitor, respectively. IC50 values were calculated from the mean values of data. XOI activity IC50 (the concentration of active compound required to observe 50% XO inhibition) was determined by plotting the percentage inhibition as a function of concentration of the test compound.
# [2] = biological target: xanthine oxidase (XO); conditions: peptide from Skipjack tuna hydrolysates; read-out: XOI activity of IC50; cited from earlier work
# Text: Seven peptides (WDDMEKIW, APPERKYSVW, IADRMQKELT, LNSADLIK, LSNLGIVI, IGALRAVA, and HHTFYNELR) derived from SYC were obtained and their activity values, hemolysis, and toxicity were predicted. Their basic data (AA sequence, MW, PI, predicted activity values, hemolysis, toxicity, and IC50 for XOI activity) are summarized in Table 3. […] Only WW8 and AW10 were predicted to have higher potential physiological activity, and all were non-hemolytic except LSNLGIVI and LNSADLIK. The r ...
# [3] = Dissolution of synthesized peptides in water; format: physicochemical
# [4] = tested on: XO; conditions: concentration of 0.25 mg/mL; cited from earlier work
# Description: Nongonierma reported that Trp inhibited XO by 70.3 ± 1.1% at a concentration of 0.25 mg/mL. Li claimed that relatively lower IC50 values were mainly located in the peptides containing Trp residue, reporting that the IC50 values of peptides WDD, WDQW, PPKNW, WPPKN, and WSREEQE were lower than those of peptides HCPF and ADIYTE, and that these ...
molecule,measurement,setting,value
IADRMQKELT [peptide derived from SYC],XOI activity at 15 mg/mL,[1],no XOI activity
ACECD [XOI peptide from Skipjack tuna hydrolysates],IC50,[2],13.4 mM
IGALRAVA [peptide derived from SYC],Dissolution in water at 3 mg/mL,[3],did not even dissolve in water
"APPERKYSVW [APPERKYSVW, Ala-Pro-Pro-Glu-Arg-Lys-Tyr-Ser-Val-Trp]",IC50,[1],5.86 ± 0.02 mM
HHTFYNELR [peptide derived from SYC],Dissolution in water at 3 mg/mL,[3],did not even dissolve in water
"WDDMEKIW [WDDMEKIW, Trp-Asp-Asp-Met-Glu-Lys-Ile-Trp]",IC50,[1],3.16 ± 0.03 mM
LSNLGIVI [peptide derived from SYC],Dissolution in water at 3 mg/mL,[3],did not even dissolve in water
N[C@@H](Cc1c[nH]c2ccccc12)C(=O)O [Trp],Inhibition of XO,[4],70.3 ± 1.1%
LNSADLIK [peptide derived from SYC],XOI activity at 15 mg/mL,[1],no XOI activity
